Where a name gives a salt, the structure may show the parent alone.
Tested on: HiBiT-HSD17β13 fusion protein (N-terminal HiBiT-tagged HSD17β13 isoform D) in Huh7 HiBiT-HSD17β13 OE cells
Experiment: Whole-cell Huh7-HSD17B13 HiBiT assay (degrader potency and maximal efficacy, luminescence readout)
Format: cell-based, human
Conditions: 24 hour incubation, geometric mean, * = geometric mean for all forms tested (parent and salt forms); for DC50: read-out: Huh7_HIBIT-HSD17β13_DC50 GMean DC50; for Huh7_HIBIT-HSD17β13_DC50 GMean Asymptote Maximum: max. concentration 1 μM
Description: Degrader potency and maximal efficacy of test compounds were determined using a whole-cell Huh7-HSD17B13 HiBiT assay, utilizing a luminescence readout. A HiBiT tag was fused to the N-terminus of HSD17β13, and therefore the HiBiT luminescence signal produced in the assay was proportional to the level of HiBiT-HSD17β13 fusion protein in a sample.
A Huh7 HiBiT-HSD17β13 OE cell line was generated using electroporation with an N-terminal HiBiT-tagged HSD17β13 isoform D overexpression plasmid, followed by geneticin selection to produce a stable pool. Clones were created with varying HiBiT signals to optimize HiBiT HSD17 β13 ratios. A clone with similar HSD17β13 expression levels as human primary hepatocytes was selected for the compound screen.
Greiner 384-well white opaque, flat bottom, tissue culture treated plates (Greiner #781080) were used for both HiBiT and CTG assays. The treated plates were spotted with 25 nL of a compound which had been serial diluted 1 in 3.162 in 100% DMSO for an 11-point concentration response curve, with duplicate points at each concentration. The maximum concentration of the compounds was 1 mM, which was later diluted with cell suspension for a maximum concentration of 1 μM). High percentage effect (HPE) wells and zero percentage effect (ZPE) wells located in columns 1 and 24 were spotted with 25 nL of DMSO (Sigma #D2650) using an ECHO Acoustic Liquid Handler (Labcyte Echo 550 Series). Each plate was performed in duplicate.
The Huh7 HiBiT-HSD17β13 OE cells were plated on top of a compound or a DMSO control at 3,000 viable cells/well in 25 μL growth media (DMEM (Gibco #10569), 10% FBS HI (Gibco #16140), 1× Pen/Strep (Gibco #15070), 1×MEM Non-Essential Amino Acids (Gibco #11140), and 300 μg/mL Geneticin (Gibco #10131) in columns 2-24 of the plates. Huh7 parental cells were plated using the same parameters in column 1 (HPE) in the same culture medium, excluding Geneticin selection. Cells were incubated overnight with the compounds for 24 hours (with lid) at 37° C. ([…]).
Each assay was conducted after a 24 hour incubation period. In the HiBiT assay plates, 25 μL of complete Nano-Glo HiBiT Lytic detection system (Promega #PRN3040), consisting of HiBiT Lytic Buffer with the addition of 1:100 LgBiT Protein and 1:50 Substrate, was added to each well. In CTG counter screen plates, 25 μL of Cell Titer-Glo Luminescent Reagent (Promega #G7573) was added to each well. Both plates were centrifuged for 2 minutes at 1000 rpm and incubated at room temperature, in the dark, for 10 minutes. Then Luminescence was read using an EnVision Plate Reader (Perkin Elmer PE2103).
The raw data from the Envision Plate Reader was expressed as relative luminescence units (RLUs) for each well of the assay plates. Using HPE and ZPE controls, the % effect was calculated for each sample well as follows: Percent effect=[(sample RLU−HPE RLU)\(ZPE RLU−HPE RLU)]*100. The percent effect was plotted versus the compound concentration and a 50% degradation ([…]) was determined using a four-parameter logistic dose response equation. The raw data was analyzed using ABase (IDBS).

SMILES	DC50	Huh7_HIBIT-HSD17β13_DC50 GMean Asymptote Maximum
Cl.Cn1c(=O)n(C2CCC(=O)NC2=O)c2ccc(CCN3CCN(c4ccc5cn(C6CCC(CNC(=O)c7cc(F)c(O)c(F)c7F)CC6)nc5c4)CC3)cc21 (racemic) [Example 9, N-{[(1r,4r)-4-{6-[4-(2-{1-[(3RS)-2,6-Dioxopiperidin-3-yl]-3-methyl-2-oxo-2,3-dihydro-1H-benzimidazol-5-yl}ethyl)piperazin-1-yl]-2H-indazol-2-yl}cyclohexyl]methyl}-2,3,5-trifluoro-4-hydroxybenzamide, hydrochloride salt]	260 pM	83* %
Cc1ccc(C(=O)N2CCC3(CC2)CC(N2CCN(c4ccc5cn([C@H]6CC[C@H](CNC(=O)c7cc(F)c(O)c(F)c7F)CC6)nc5c4)CC2)C3)cc1N1CCC(=O)NC1=O [Example 82, N-({(1r,4r)-4-[6-(4-{7-[3-(2,4-dioxo-1,3-diazinan-1-yl)-4-methylbenzoyl]-7-azaspiro[3.5]nonan-2-yl}piperazin-1-yl)-2H-indazol-2-yl]cyclohexyl}methyl)-2,3,5-trifluoro-4-hydroxybenzamide, trifluoroacetate salt]	2000 pM	74%
Cn1c(=O)n(C2CCC(=O)NC2=O)c2ccc(CCCN3CCN(c4nc(-c5nc([C@]67CC[C@](CNC(=O)c8cc(F)c(O)c(F)c8F)(CC6)CC7)no5)cc(-n5ccnc5)n4)CC3)cc21 (mixture of isomers) [Example 125, N-{[4-(5-{2-[4-(3-{1-[(3RS)-2,6-dioxopiperidin-3-yl]-3-methyl-2-oxo-2,3-dihydro-1H-benzimidazol-5-yl}propyl)piperazin-1-yl]-6-(1H-imidazol-1-yl)pyrimidin-4-yl}-1,2,4-oxadiazol-3-yl)bicyclo[2.2.2]octan-1-yl]methyl}-2,3,5-trifluoro-4-hydroxybenzamide, formate salt]	280 pM	85%
Cl.Cn1c(=O)n(C2CCC(=O)NC2=O)c2ccc(CCCN3CCN(c4nccc(-c5nc(C67CCC(CNC(=O)c8cc(F)c(O)c(F)c8F)(CC6)CC7)no5)n4)CC3)cc21 (racemic) [Example 3, N-{[4-(5-{2-[4-(3-{1-[(3RS)-2,6-Dioxopiperidin-3-yl]-3-methyl-2-oxo-2,3-dihydro-1H-benzimidazol-5-yl}propyl)piperazin-1-yl]pyrimidin-4-yl}-1,2,4-oxadiazol-3-yl)bicyclo[2.2.2]octan-1-yl]methyl}-2,3,5-trifluoro-4-hydroxybenzamide, hydrochloride salt]	190 pM	84* %
Cn1c(=O)n(C2CCC(=O)NC2=O)c2ccc(CCN3CCOC4(CCN(c5ccc6cn([C@H]7CC[C@H](CNC(=O)c8cc(F)c(O)c(F)c8F)CC7)nc6c5)CC4)C3)cc21 (mixture of isomers) [Example 74, N-{[(1r,4r)-4-{6-[4-(2-{1-[(3RS)-2,6-dioxopiperidin-3-yl]-3-methyl-2-oxo-2,3-dihydro-1H-benzimidazol-5-yl}ethyl)-1-oxa-4,9-diazaspiro[5.5]undecan-9-yl]-2H-indazol-2-yl}cyclohexyl]methyl}-2,3,5-trifluoro-4-hydroxybenzamide, trifluoroacetate salt]	230 pM	87%
Cn1c(=O)n(C2CCC(=O)NC2=O)c2ccc(CN3CCN(c4ncc(-c5ccn6cc([C@]78CC[C@](CNC(=O)c9cc(F)c(O)c(F)c9F)(CC7)CC8)nc6c5)cn4)CC3)cc21 (mixture of isomers) [Example 84, N-{[4-(7-{2-[4-({1-[(3RS)-2,6-dioxopiperidin-3-yl]-3-methyl-2-oxo-2,3-dihydro-1H-benzimidazol-5-yl}methyl)piperazin-1-yl]pyrimidin-5-yl}imidazo[1,2-a]pyridin-2-yl)bicyclo[2.2.2]octan-1-yl]methyl}-2,3,5-trifluoro-4-hydroxybenzamide]	590 pM	83%
O=C1CCC(N2Cc3cc(N4CCC(CCN5CCN(c6nccc(-c7nc([C@]89CC[C@](CNC(=O)c%10cc(F)c(O)c(F)c%10F)(CC8)CC9)no7)n6)CC5)CC4)ccc3C2=O)C(=O)N1 (mixture of isomers) [Example 132, N-({4-[5-(2-{4-[2-(1-{2-[(3RS)-2,6-dioxopiperidin-3-yl]-1-oxo-2,3-dihydro-1H-isoindol-5-yl}piperidin-4-yl)ethyl]piperazin-1-yl}pyrimidin-4-yl)-1,2,4-oxadiazol-3-yl]bicyclo[2.2.2]octan-1-yl}methyl)-2,3,5-trifluoro-4-hydroxybenzamide, trifluoroacetate salt]	1600 pM	82%
Cc1ccc(C(=O)N2CCN(C3COC4(CCN(c5ncc(-c6ccc7cn([C@H]8CC[C@H](CNC(=O)c9cc(F)c(O)c(F)c9F)CC8)nc7c6)cn5)CC4)C3)CC2)cc1N1CCC(=O)NC1=O (stereo partly drawn) [Example 59, N-{[(1r,4r)-4-{6-[2-(3-{4-[3-(2,4-dioxo-1,3-diazinan-1-yl)-4-methylbenzoyl]piperazin-1-yl}-1-oxa-8-azaspiro[4.5]decan-8-yl)pyrimidin-5-yl]-2H-indazol-2-yl}cyclohexyl]methyl}-2,3,5-trifluoro-4-hydroxybenzamide, trifluoroacetate salt]	1000 pM	80%
Cn1c(=O)n(C2CCC(=O)NC2=O)c2ccc(CN3CCOC4(CCN(c5ccc6cn([C@H]7CC[C@H](CNC(=O)c8cc(F)c(O)c(F)c8F)CC7)nc6c5)CC4)C3)cc21 (mixture of isomers) [Example 77, N-{[(1r,4r)-4-{6-[4-({1-[(3RS)-2,6-dioxopiperidin-3-yl]-3-methyl-2-oxo-2,3-dihydro-1H-benzimidazol-5-yl}methyl)-1-oxa-4,9-diazaspiro[5.5]undecan-9-yl]-2H-indazol-2-yl}cyclohexyl]methyl}-2,3,5-trifluoro-4-hydroxybenzamide, trifluoroacetate salt]	930 pM	86%
Cc1ccc(C(=O)N2CCC3(CCN(c4ncc(-c5ccc6cn([C@H]7CC[C@H](CNC(=O)c8cc(F)c(O)c(F)c8F)CC7)nc6c5)cn4)CC3)C2)cc1N1CCC(=O)NC1=O [Example 58, N-({(1r,4r)-4-[6-(2-{2-[3-(2,4-dioxo-1,3-diazinan-1-yl)-4-methylbenzoyl]-2,8-diazaspiro[4.5]decan-8-yl}pyrimidin-5-yl)-2H-indazol-2-yl]cyclohexyl}methyl)-2,3,5-trifluoro-4-hydroxybenzamide, trifluoroacetate salt]	1500 pM	73%
Cn1c(=O)n(C2CCC(=O)NC2=O)c2ccc(CCCN3CCN(c4ncc(-c5ccc6cn([C@]78CC[C@](CNC(=O)c9cc(F)c(O)c(F)c9F)(CC7)CC8)nc6c5)cn4)CC3)cc21 (mixture of isomers) [Example 95, N-{[4-(6-{2-[4-(3-{1-[(3RS)-2,6-dioxopiperidin-3-yl]-3-methyl-2-oxo-2,3-dihydro-1H-benzimidazol-5-yl}propyl)piperazin-1-yl]pyrimidin-5-yl}-2H-indazol-2-yl)bicyclo[2.2.2]octan-1-yl]methyl}-2,3,5-trifluoro-4-hydroxybenzamide, trifluoroacetate salt]	240 pM	80%
O=C1CCN(c2cnn3cc(CCCN4Cc5ccc(-c6ccc7cn([C@H]8CC[C@H](CNC(=O)c9cc(F)c(O)c(F)c9F)CC8)nc7c6)cc5C4)ccc23)C(=O)N1 [Example 131, N-({(1r,4r)-4-[6-(2-{3-[3-(2,4-dioxo-1,3-diazinan-1-yl)pyrazolo[1,5-a]pyridin-6-yl]propyl}-2,3-dihydro-1H-isoindol-5-yl)-2H-indazol-2-yl]cyclohexyl}methyl)-2,3,5-trifluoro-4-hydroxybenzamide, trifluoroacetate salt]	870 pM	78%
